Read-outs that look alike come from different tables or passages of the source.
Legend:
circulating platelets [1] = conditions: mouse, in vivo
circulating platelets [2] = assay: Number of circulating platelets in mice after a single intraperitoneal injection (thrombocytopenia)
[3] = single intraperitoneal injection, dose 0.61 mg/kg

Row | Structure (SMILES) | thrombocytopenia (circulating platelets [1]) | time of maximal thrombocytopenia following injection (circulating platelets [1]) [h] | Time to lowest count (circulating platelets [1]; ip, 100 mg/kg) [h] | Lowest thrombocyte count (circulating platelets [1]; ip, 100 mg/kg, 6 h) | time of maximal thrombocytopenia following injection (circulating platelets [2]) [h] | thrombocytopenia (circulating platelets [2]; after injection of the compound) | platelet number after dosing (circulating platelets [2]; dose of 0.61 mg/kg) | decrease of platelet number (circulating platelets [2]; dose of 0.61 mg/kg, from normal count of approximately 6*10^5/mm^3) [fold] | Lowest thrombocyte count (circulating platelets [2]; [3]) | Time to lowest count (circulating platelets [2]; [3]) [h]
1 | CC1(C)CCC(c2ccc(Cl)cc2)=C(CN2CCN(c3ccc(C(=O)NS(=O)(=O)c4ccc(N[C@H](CCN5CCOCC5)CSc5ccccc5)c(S(=O)(=O)C(F)(F)F)c4)cc3)CC2)C1 [Navitoclax] | caused thrombocytopenia | 6 | 6 | 10 1/10^3 of the platelet#/mm^3 |  |  |  |  |  | 
2 | CNCCOC12CC3(C)CC(C)(CC(Cn4ncc(-c5ccc(N6CCc7cccc(C(=O)Nc8nc9ccccc9s8)c7C6)nc5C(=O)O)c4C)(C3)C1)C2 [Example 1.13.7, 6-[8-(1,3-benzothiazol-2-ylcarbamoyl)-3,4-dihydroisoquinolin-2 (1H)-yl]-3-[1-({3,5-dimethyl-7-[2-(methylamino)ethoxy]tricyclo[3.3.1.1^3,7]dec-1-yl}methyl)-5-methyl-1H-pyrazol-4-yl]pyridine-2-carboxylic acid] |  |  |  |  | 6 | caused thrombocytopenia | 6*10^3 /mm^3 | 100 | 6 1/10^3 of the platelet#/mm^3 | 6

Source: patent US20240058450A1, “BCL-XL Inhibitory Compounds Having Low Cell Permeability and Antibody Drug Conjugates Including the Same” (AbbVie Inc., priority 2014, published 2024)
